Laboratory results published in PubChem BioAssay AID2060497 (Molecular Pharmacology Branch, DTP, NCI, 2025).

Test system: 317291-083-R-J1-PDC complex spheroids, viability
Assay: Anticancer human tumor 317291-083-R-J1-PDC patient-derived soft tissue sarcoma cell line growth inhibition [GQUAD]
Conditions: for IC50: curve of first compound; for viability, T/C: stronger effect = lower value
How it was run: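 Multi-cell-type spheroids of tumor cells with HUVEC and mesenchymal stem cells, treated with drug combinations. Concentrations descend in half-log steps from near clinical Cmax, or from 10 microM where Cmax is unknown; viability read-out.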

[1] = second compound 0.0316 µM, first compound 0.0316 µM
[2] = second compound 0.0316 µM, first compound 0.1 µM
[3] = second compound 0.0316 µM, first compound 0.316 µM
[4] = second compound 0.0316 µM, first compound 1 µM
[5] = second compound 0.0316 µM, first compound 3.16 µM
[6] = second compound 0.0316 µM, first compound 10 µM
[7] = second compound 0.1 µM, first compound 0.0316 µM
[8] = second compound 0.1 µM, first compound 0.1 µM
[9] = second compound 0.1 µM, first compound 0.316 µM
[10] = second compound 0.1 µM, first compound 1 µM
[11] = second compound 0.1 µM, first compound 3.16 µM
[12] = second compound 0.1 µM, first compound 10 µM
[13] = second compound 0.316 µM, first compound 0.0316 µM
[14] = second compound 0.316 µM, first compound 0.1 µM
[15] = second compound 0.316 µM, first compound 0.316 µM
[16] = second compound 0.316 µM, first compound 1 µM
[17] = second compound 0.316 µM, first compound 3.16 µM
[18] = second compound 0.316 µM, first compound 10 µM
[19] = second compound 1 µM, first compound 0.0316 µM
[20] = second compound 1 µM, first compound 0.1 µM
[21] = second compound 1 µM, first compound 0.316 µM
[22] = second compound 1 µM, first compound 1 µM
[23] = second compound 1 µM, first compound 3.16 µM
[24] = second compound 1 µM, first compound 10 µM
[25] = second compound 3.16 µM, first compound 0.0316 µM
[26] = second compound 3.16 µM, first compound 0.1 µM
[27] = second compound 3.16 µM, first compound 0.316 µM
[28] = second compound 3.16 µM, first compound 1 µM
[29] = second compound 3.16 µM, first compound 3.16 µM
[30] = second compound 3.16 µM, first compound 10 µM
[31] = second compound 10 µM, first compound 0.0316 µM
[32] = second compound 10 µM, first compound 0.1 µM
[33] = second compound 10 µM, first compound 0.316 µM
[34] = second compound 10 µM, first compound 1 µM
[35] = second compound 10 µM, first compound 3.16 µM
[36] = second compound 10 µM, first compound 10 µM
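Also: spheroids exposed to compounds for one week before readout.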
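For viability, T/C in this document: percent viability relative to DMSO vehicle wells taken as 100%.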

Q: `CC1COCCN1c1cc(C2(O)CC3CCC(C2)O3)c2cnn(-c3ccn[nH]3)c2n1` (stereo unspecified) + CN(C)c1ccc(Nc2c3ccc(NC(=O)CCN4CCCC4)cc3nc3cc(NC(=O)CCN4CCCC4)ccc23)cc1 was tested. Which IC50 (second compound 0.0316 µM) did it give?
A: 37.1 nM

Q: What about the IC50 (second compound 0.1 µM) of the same compound?
A: < 31.6 nM

Q: And the IC50 (second compound 0.316 µM)?
A: < 31.6 nM

Q: What about the IC50 (second compound 1 µM) of the same compound?
A: < 31.6 nM

Q: What about the IC50 (second compound 3.16 µM) of the same compound?
A: < 31.6 nM

Q: What about the IC50 (second compound 10 µM) of the same compound?
A: < 31.6 nM

Q: And the viability, T/C [1]?
A: 54.7%

Q: What about the viability, T/C [2] of the same compound?
A: 21.6%

Q: And the viability, T/C [3]?
A: 16.4%

Q: And the viability, T/C [4]?
A: 16.2%

Q: And the viability, T/C [5]?
A: 12.9%

Q: And the viability, T/C [6]?
A: 2.01%

Q: What about the viability, T/C [7] of the same compound?
A: 50.5%

Q: What about the viability, T/C [8] of the same compound?
A: 25.5%

Q: And the viability, T/C [9]?
A: 18.2%

Q: And the viability, T/C [10]?
A: 15.3%

Q: What about the viability, T/C [11] of the same compound?
A: 11.1%

Q: And the viability, T/C [12]?
A: 3.17%

Q: And the viability, T/C [13]?
A: 44.2%

Q: And the viability, T/C [14]?
A: 17.4%

Q: And the viability, T/C [15]?
A: 12.6%

Q: What about the viability, T/C [16] of the same compound?
A: 12.1%

Q: And the viability, T/C [17]?
A: 12.8%

Q: What about the viability, T/C [18] of the same compound?
A: 2.37%

Q: And the viability, T/C [19]?
A: 23.5%

Q: And the viability, T/C [20]?
A: 10.9%

Q: And the viability, T/C [21]?
A: 8.42%

Q: What about the viability, T/C [22] of the same compound?
A: 5.55%

Q: What about the viability, T/C [23] of the same compound?
A: 7.51%

Q: What about the viability, T/C [24] of the same compound?
A: 1.2%

Q: What about the viability, T/C [25] of the same compound?
A: 15.1%

Q: What about the viability, T/C [26] of the same compound?
A: 9.28%

Q: What about the viability, T/C [27] of the same compound?
A: 6%

Q: And the viability, T/C [28]?
A: 3.23%

Q: And the viability, T/C [29]?
A: 4.27%

Q: And the viability, T/C [30]?
A: 0.57%

Q: What about the viability, T/C [31] of the same compound?
A: 4.09%

Q: And the viability, T/C [32]?
A: 3.93%

Q: What about the viability, T/C [33] of the same compound?
A: 2.46%

Q: What about the viability, T/C [34] of the same compound?
A: 2.16%

Q: And the viability, T/C [35]?
A: 2.2%

Q: What about the viability, T/C [36] of the same compound?
A: 0.34%

Q: `O=c1[nH]cc(F)c(=O)[nH]1` + CN(C)c1ccc(Nc2c3ccc(NC(=O)CCN4CCCC4)cc3nc3cc(NC(=O)CCN4CCCC4)ccc23)cc1 was tested. Which IC50 (second compound 0.0316 µM) did it give?
A: 2320 nM

Q: And the IC50 (second compound 0.1 µM)?
A: 2440 nM

Q: What about the IC50 (second compound 0.316 µM) of the same compound?
A: 1760 nM

Q: And the IC50 (second compound 1 µM)?
A: 31.6 nM

Q: What about the IC50 (second compound 3.16 µM) of the same compound?
A: < 31.6 nM

Q: What about the IC50 (second compound 10 µM) of the same compound?
A: < 31.6 nM

Q: And the viability, T/C [1]?
A: 91.6%

Q: And the viability, T/C [2]?
A: 83.3%

Q: And the viability, T/C [3]?
A: 101%

Q: And the viability, T/C [4]?
A: 74.3%

Q: What about the viability, T/C [5] of the same compound?
A: 43.5%

Q: And the viability, T/C [6]?
A: 38.5%

Q: And the viability, T/C [7]?
A: 110%

Q: And the viability, T/C [8]?
A: 106%

Q: What about the viability, T/C [9] of the same compound?
A: 103%

Q: What about the viability, T/C [10] of the same compound?
A: 69.7%

Q: And the viability, T/C [11]?
A: 46.2%

Q: And the viability, T/C [12]?
A: 36.6%

Q: What about the viability, T/C [13] of the same compound?
A: 89.4%

Q: And the viability, T/C [14]?
A: 74.7%

Q: And the viability, T/C [15]?
A: 83.2%

Q: And the viability, T/C [16]?
A: 56.4%

Q: What about the viability, T/C [17] of the same compound?
A: 42.1%

Q: And the viability, T/C [18]?
A: 29.5%

Q: What about the viability, T/C [19] of the same compound?
A: 53.2%

Q: What about the viability, T/C [20] of the same compound?
A: 43.2%

Q: What about the viability, T/C [21] of the same compound?
A: 51.1%

Q: And the viability, T/C [22]?
A: 21.3%

Q: And the viability, T/C [23]?
A: 29.4%

Q: What about the viability, T/C [24] of the same compound?
A: 23.3%

Q: What about the viability, T/C [25] of the same compound?
A: 36.6%

Q: And the viability, T/C [26]?
A: 27.3%

Q: And the viability, T/C [27]?
A: 35.1%

Q: And the viability, T/C [28]?
A: 26.8%

Q: What about the viability, T/C [29] of the same compound?
A: 27.2%

Q: And the viability, T/C [30]?
A: 22.6%

Q: What about the viability, T/C [31] of the same compound?
A: 7.27%

Q: And the viability, T/C [32]?
A: 5.52%

Q: What about the viability, T/C [33] of the same compound?
A: 17%

Q: What about the viability, T/C [34] of the same compound?
A: 11.3%

Q: And the viability, T/C [35]?
A: 9.24%

Q: What about the viability, T/C [36] of the same compound?
A: 7.86%

Q: Which results are given for `CC(C)(O)C1CCC(Nc2ccc3ncc(-c4cccc(C(F)(F)F)c4)n3n2)CC1` (stereo unspecified) + Cc1cnc(CNC(=O)c2c(=O)c3ccc(N4CCCN(C)CC4)nc3n3c2sc2ccccc23)cn1?
A: IC50 (second compound 0.0316 µM): 507 nM; IC50 (second compound 0.1 µM): 342 nM; IC50 (second compound 0.316 µM): 91.4 nM; IC50 (second compound 1 µM): < 31.6 nM; IC50 (second compound 3.16 µM): < 31.6 nM; IC50 (second compound 10 µM): < 31.6 nM; viability, T/C [1]: 87.8%; viability, T/C [2]: 76.5%; viability, T/C [3]: 72.1%; viability, T/C [4]: 19%; viability, T/C [5]: 0.22%; viability, T/C [6]: 0.45%; viability, T/C [7]: 58.2%; viability, T/C [8]: 60%; viability, T/C [9]: 49.1%; viability, T/C [10]: 28%; viability, T/C [11]: 0.24%; viability, T/C [12]: 1.34%; viability, T/C [13]: 72.8%; viability, T/C [14]: 37.8%; viability, T/C [15]: 37.8%; viability, T/C [16]: 24.8%; viability, T/C [17]: 1.74%; viability, T/C [18]: 2.26%; viability, T/C [19]: 30.8%; viability, T/C [20]: 19.5%; viability, T/C [21]: 16%; viability, T/C [22]: 25.2%; viability, T/C [23]: 0.05%; viability, T/C [24]: 0.07%; viability, T/C [25]: 13.3%; viability, T/C [26]: 14.7%; viability, T/C [27]: 8.5%; viability, T/C [28]: 0.54%; viability, T/C [29]: 0.12%; viability, T/C [30]: 0.16%; viability, T/C [31]: 1.34%; viability, T/C [32]: 0.11%; viability, T/C [33]: 0.17%; viability, T/C [34]: 0.12%; viability, T/C [35]: 0.21%; viability, T/C [36]: 0.22%
